Test results taken from US20250115591A1, “NOVEL SULFONAMIDE CARBOXAMIDE COMPOUNDS” (INFLAZOME LIMITED, priority 2017, published 2025).
Counter-ions that a name gives are not always drawn.

target: NLRP3 (Homo sapiens (Human), UniProt Q96P20); test: THP-1 cells pyroptosis assay (LPS + nigericin, resazurin read-out); type: cell-based; conditions: 1 μg/ml LPS, 5 μM nigericin
Method: THP-1 cells (ATCC #TIB-202) were grown in RPMI containing L-glutamine (Gibco 15 #11835) supplemented with 1 mM sodium pyruvate (Sigma #S8636) and penicillin (100 units/ml)/streptomycin (0.1 mg/ml) (Sigma #P4333) in 10% Fetal Bovine Serum (FBS) (Sigma #F0804). The cells were routinely passaged and grown to confluency (˜10^6 cells/ml). On the day of the experiment, THP-1 cells were harvested and resuspended into RPMI medium (without FBS). The cells were then counted and viability (>90%) checked by Trypan blue (Sigma #T8154). Appropriate dilutions were made to give a concentration of 625,000 cells/ml. To this diluted cell solution was added LPS (Sigma #[4524) to give a 1 μg/ml Final Assay Concentration (FAC). 40μ of the final preparation was aliquoted into each well of a 96-well plate. The plate thus prepared was used for compound screening.
The following method step-by-step assay was followed for compound screening. • 1. Seed THP-1 cells (25,000 cells/well) containing 1.0 μg/ml LPS in 40μ of RPMI medium (without FBS) in 96-well, black walled, clear bottom cell culture plates coated with poly-D-lysine (VWR #734-0317) • 2. Add 5 μl compound (8 points half-log dilution, with […]) or vehicle (DMSO 0.1% FAC) to the appropriate wells • 3. Incubate for 3 hrs at 37° C. and 5% CO2 • 4. Add 5 μl nigericin (Sigma #N7143) (FAC 5 μM) to all wells • 5. Incubate for 1 hr at 37° C. and 5% CO2 • 6. At the end of the incubation period, spin plates at 300×g for 3 mins and remove supernatant • 7. Then add 50 μl of resazurin (Sigma #R7017) (FAC 100 μM resazurin in RPMI medium without FBS) and incubate plates for a further 1-2 hrs at 37° C. and 5% CO2 • 8. Plates were read in an Envision reader at Ex 560 nm and Em 590 nm • 9. IC50 data is fitted to a non-linear regression equation (log inhibitor vs response-variable slope 4-parameters)

NLRP3, sequence (Q96P20 whole entry): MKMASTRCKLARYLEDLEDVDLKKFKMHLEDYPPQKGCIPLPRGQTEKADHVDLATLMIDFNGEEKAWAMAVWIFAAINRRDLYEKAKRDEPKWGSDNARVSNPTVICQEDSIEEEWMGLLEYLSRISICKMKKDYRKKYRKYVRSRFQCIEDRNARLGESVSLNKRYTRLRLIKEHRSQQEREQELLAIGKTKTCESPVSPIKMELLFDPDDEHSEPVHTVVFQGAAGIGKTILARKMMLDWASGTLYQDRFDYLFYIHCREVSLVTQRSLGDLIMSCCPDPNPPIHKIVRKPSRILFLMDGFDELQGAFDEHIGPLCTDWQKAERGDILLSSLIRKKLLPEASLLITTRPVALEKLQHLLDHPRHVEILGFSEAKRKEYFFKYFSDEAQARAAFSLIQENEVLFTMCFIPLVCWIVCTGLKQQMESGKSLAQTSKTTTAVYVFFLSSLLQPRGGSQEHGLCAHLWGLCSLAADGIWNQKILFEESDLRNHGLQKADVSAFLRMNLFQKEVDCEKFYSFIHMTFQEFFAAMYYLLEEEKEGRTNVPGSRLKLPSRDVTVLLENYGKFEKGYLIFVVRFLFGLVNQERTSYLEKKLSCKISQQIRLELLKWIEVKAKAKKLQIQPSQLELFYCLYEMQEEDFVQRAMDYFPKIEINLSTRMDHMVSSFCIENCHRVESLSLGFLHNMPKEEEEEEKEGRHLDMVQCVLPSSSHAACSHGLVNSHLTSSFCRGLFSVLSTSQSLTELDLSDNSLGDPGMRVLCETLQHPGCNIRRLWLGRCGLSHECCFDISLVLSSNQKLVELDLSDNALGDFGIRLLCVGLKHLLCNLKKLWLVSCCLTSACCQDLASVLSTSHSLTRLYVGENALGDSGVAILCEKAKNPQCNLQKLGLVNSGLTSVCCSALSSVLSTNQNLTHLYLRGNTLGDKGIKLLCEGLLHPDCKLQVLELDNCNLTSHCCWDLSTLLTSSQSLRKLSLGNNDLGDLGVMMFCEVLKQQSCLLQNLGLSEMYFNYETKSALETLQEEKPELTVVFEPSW

Structure (SMILES)	IC50
CCN1CC(S(=O)(=O)NC(=O)Nc2c3c(cc4c2CCC4)CCC3)CC1=O (stereo not shown) [Example 147, 1-Ethyl-N-((1,2,3,5,6,7-hexahydro-s-indacen-4-yl)carbamoyl)-5-oxopyrrolidine-3-sulfonamide, potassium salt]	1 to 10 µM
COC1CN(C)CC1S(=O)(=O)NC(=O)Nc1c2c(cc3c1CCC3)CCC2 (stereo not shown) [Example 149, N-((1,2,3,5,6,7-Hexahydro-s-indacen-4-yl)carbamoyl)-4-methoxy-1-methylpyrrolidine-3-sulfonamide, potassium salt]	1 to 10 µM
CCN1CC(OC)C(S(=O)(=O)NC(=O)Nc2c3c(cc4c2CCC4)CCC3)C1 (stereo not shown) [Example 150, 1-Ethyl-N-((1,2,3,5,6,7-hexahydro-s-indacen-4-yl)carbamoyl)-4-methoxypyrrolidine-3-sulfonamide, potassium salt]	< 1 µM
CC(C)(C)[Si](C)(C)OCCN1CC(S(=O)(=O)NC(=O)Nc2c3c(cc4c2CCC4)CCC3)C1 [Example 151, 1-(2-((tert-Butyldimethylsilyl)oxy)ethyl)-N-((1,2,3,5,6,7-hexahydro-s-indacen-4-yl)carbamoyl)azetidine-3-sulfonamide, potassium salt]	< 1 µM
CC(C)c1cc(F)cc(-c2ccnc(C#N)c2)c1NC(=O)NS(=O)(=O)C1CN(C(C)C)C1 [Example 157, N-((2-(2-Cyanopyridin-4-yl)-4-fluoro-6-isopropylphenyl)carbamoyl)-1-isopropylazetidine-3-sulfonamide]	1 to 10 µM
CC(C)c1cc(F)cc(-c2ccnc(C#N)c2)c1NC(=O)NS(=O)(=O)C1CN(C2CCC2)C1 [Example 161, N-((2-(2-Cyanopyridin-4-yl)-4-fluoro-6-isopropylphenyl)carbamoyl)-1-cyclobutylazetidine-3-sulfonamide]	1 to 10 µM

Results, then the compound that gave them:

IC50	Structure (SMILES)
1 to 10 µM	CCN1CC(S(=O)(=O)NC(=O)Nc2c(-c3ccnc(C#N)c3)cc(F)cc2C(C)C)C1 [Example 165, N-((2-(2-Cyanopyridin-4-yl)-4-fluoro-6-isopropylphenyl)carbamoyl)-1-ethylazetidine-3-sulfonamide]
1 to 10 µM	CCN1CC(S(=O)(=O)NC(=O)Nc2c(-c3ccnc(OC)c3)cc(F)cc2C(C)C)C1 [Example 166, 1-Ethyl-N-((4-fluoro-2-isopropyl-6-(2-methoxypyridin-4-yl)phenyl)carbamoyl)azetidine-3-sulfonamide]
1 to 10 µM	CC(C)c1cc(F)cc(-c2ccnc(C#N)c2)c1NC(=O)NS(=O)(=O)C1CN(Cc2cccnc2)C1 [Example 169, N-((2-(2-Cyanopyridin-4-yl)-4-fluoro-6-isopropylphenyl)carbamoyl)-1-(pyridin-3-ylmethyl)azetidine-3-sulfonamide]
< 1 µM	CC(C)c1cc(F)cc(-c2cccnc2)c1NC(=O)NS(=O)(=O)C1CN(C(C)C)C1 [Example 175, N-((4-Fluoro-2-isopropyl-6-(pyridin-3-yl)phenyl)carbamoyl)-1-isopropylazetidine-3-sulfonamide]
1 to 10 µM	CC(C)c1cc(F)cc(-c2cccnc2)c1NC(=O)NS(=O)(=O)C1CCN(C(C)C)CC1 [Example 176, N-((4-Fluoro-2-isopropyl-6-(pyridin-3-yl)phenyl)carbamoyl)-1-isopropylpiperidine-4-sulfonamide]
1 to 10 µM	COc1cc(-c2cc(F)cc(C(C)C)c2NC(=O)NS(=O)(=O)C2CN(Cc3cccnc3)C2)ccn1 [Example 177, N-((4-Fluoro-2-isopropyl-6-(2-methoxypyridin-4-yl)phenyl)carbamoyl)-1-(pyridin-3-ylmethyl)azetidine-3-sulfonamide]
< 1 µM	COc1cc(-c2ccc3c(c2NC(=O)NS(=O)(=O)c2ccn(C(C)C)c(=O)c2)CCC3)ccn1 [Example 179, 1-Isopropyl-N-((5-(2-methoxypyridin-4-yl)-2,3-dihydro-1H-inden-4-yl)carbamoyl)-2-oxo-1,2-dihydropyridine-4-sulfonamide, sodium salt]
